Measurements published in patent publication US20220033397A1, “PHARMACEUTICAL COMPOUNDS AND THEIR USE AS INHIBITORS OF UBIQUITIN SPECIFIC PROTEASE 19 (USP19)” (ALMAC DISCOVERY LIMITED, priority 2018, published 2022).
pIC50: −log10 of the molar value.

The molecules below were run against T1, Full-length USP19 (Homo sapiens, UniProt O94966) (assay: USP19 fluorescence polarisation (FP) homogeneous assay with Ubiquitin-Lys-TAMRA substrate). Conditions: 2.5 nM USP19, 30 min pre-incubation, average of at least two duplicate experiments.
T1 construct: Full-length USP19 was purchased from Boston Biochem (E-576); purchased Boston Biochem E-576
T1 sequence (O94966 1-1318): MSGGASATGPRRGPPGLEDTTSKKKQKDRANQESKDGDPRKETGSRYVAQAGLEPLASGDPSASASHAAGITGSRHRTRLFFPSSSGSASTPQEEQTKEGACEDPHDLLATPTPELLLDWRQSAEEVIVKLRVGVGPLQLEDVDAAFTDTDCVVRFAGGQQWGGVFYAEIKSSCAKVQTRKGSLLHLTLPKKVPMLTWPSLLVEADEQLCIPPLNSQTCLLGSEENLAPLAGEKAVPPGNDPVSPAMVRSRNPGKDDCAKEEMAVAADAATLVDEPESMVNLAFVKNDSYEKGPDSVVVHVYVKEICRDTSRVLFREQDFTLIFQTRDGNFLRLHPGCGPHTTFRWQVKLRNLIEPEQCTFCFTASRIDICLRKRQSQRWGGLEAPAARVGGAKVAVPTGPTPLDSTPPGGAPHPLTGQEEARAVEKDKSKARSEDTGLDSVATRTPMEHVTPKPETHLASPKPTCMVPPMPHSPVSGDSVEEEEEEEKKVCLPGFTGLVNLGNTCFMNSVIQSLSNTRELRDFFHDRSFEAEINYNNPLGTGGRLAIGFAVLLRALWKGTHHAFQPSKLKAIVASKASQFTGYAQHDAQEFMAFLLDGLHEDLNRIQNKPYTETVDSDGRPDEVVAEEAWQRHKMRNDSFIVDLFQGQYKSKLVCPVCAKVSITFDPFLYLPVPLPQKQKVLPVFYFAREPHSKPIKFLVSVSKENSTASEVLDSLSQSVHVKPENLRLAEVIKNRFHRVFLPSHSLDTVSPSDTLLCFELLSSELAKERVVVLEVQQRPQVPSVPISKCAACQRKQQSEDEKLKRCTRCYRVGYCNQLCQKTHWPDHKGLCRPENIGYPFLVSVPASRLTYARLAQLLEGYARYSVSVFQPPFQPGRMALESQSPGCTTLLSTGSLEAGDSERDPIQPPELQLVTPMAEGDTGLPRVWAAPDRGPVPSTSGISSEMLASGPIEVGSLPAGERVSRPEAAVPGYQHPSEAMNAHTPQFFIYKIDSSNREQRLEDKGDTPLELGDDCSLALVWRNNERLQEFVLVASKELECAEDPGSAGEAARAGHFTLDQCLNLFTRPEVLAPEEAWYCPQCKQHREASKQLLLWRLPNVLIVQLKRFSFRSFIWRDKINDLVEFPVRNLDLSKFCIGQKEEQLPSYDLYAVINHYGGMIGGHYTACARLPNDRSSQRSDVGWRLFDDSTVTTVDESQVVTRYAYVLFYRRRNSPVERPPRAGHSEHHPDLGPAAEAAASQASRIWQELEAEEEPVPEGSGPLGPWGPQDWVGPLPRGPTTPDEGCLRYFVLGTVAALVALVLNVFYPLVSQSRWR
Format: biochemical
Procedure, shortened: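 Full-length USP19 preincubated 30 min at RT with inhibitor (200 μM to 2 μM series, 8–18 points) before adding 500 nM Ubiquitin-Lys-TAMRA substrate.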

| Structure (SMILES) | pIC50 |
| --- | --- |
| O=C(N1CCC(O)(Cn2cnc(-c3ccccc3)cc2=O)C2(CCCC2)C1)N1CCC[C@H]1c1ccon1 (stereo partly drawn) [Example 265, 3-((10-Hydroxy-7-((S)-2-(isoxazol-3-yl)pyrrolidine-1-carbonyl)-7-azaspiro[4.5]decan-10-yl)methyl)-6-phenylpyrimidin-4(3H)-one] | 5.30 to 6.30 |
| CN(C)C(=O)[C@@H]1CCCN1C(=O)N1CCC(O)(Cn2cnc(-c3ccccc3)cc2=O)C2(CCCC2)C1 (stereo partly drawn) [Example 266, (2S)-1-(10-Hydroxy-10-((6-oxo-4-phenylpyrimidin-1(6H)-yl)methyl)-7-azaspiro[4.5]decane-7-carbonyl)-N,N-dimethylpyrrolidine-2-carboxamide] | 3.60 to 4.30 |
| O=C(N1CCC(O)(Cn2cnc(-c3ccccc3)cc2=O)C2(CCCC2)C1)N1CCC[C@H]1Cc1cccs1 (stereo partly drawn) [Example 267, 3-((10-Hydroxy-7-((S)-2-(thiophen-2-ylmethyl)pyrrolidine-1-carbonyl)-7-azaspiro[4.5]decan-10-yl)methyl)-6-phenylpyrimidin-4(3H)-one] | 3.60 to 4.30 |
| O=C(N1CCC(O)(Cn2cnc(-c3ccccc3)cc2=O)C2(CCCC2)C1)N1CCC[C@H]1c1ncn[nH]1 (stereo partly drawn) [Example 268, 3-((7-((S)-2-(1H-1,2,4-Triazol-5-yl)pyrrolidine-1-carbonyl)-10-hydroxy-7-azaspiro[4.5]decan-10-yl)methyl)-6-phenylpyrimidin-4(3H)-one] | 3.60 to 4.30 |
| Cc1nc([C@@H]2CCCN2C(=O)N2CCC(O)(Cn3cnc(-c4ccccc4)cc3=O)C3(CCCC3)C2)n[nH]1 (stereo partly drawn) [Example 269, 3-((10-Hydroxy-7-((S)-2-(5-methyl-1H-1,2,4-triazol-3-yl)pyrrolidine-1-carbonyl)-7-azaspiro[4.5]decan-10-yl)methyl)-6-phenylpyrimidin-4(3H)-one] | 3.60 to 4.30 |
| CC(C)c1coc([C@@H]2CCCN2C(=O)N2CCC(O)(Cn3cnc(-c4ccccc4)cc3=O)C3(CCCC3)C2)n1 (stereo partly drawn) [Example 270, 3-((10-Hydroxy-7-((S)-2-(4-isopropyloxazol-2-yl)pyrrolidine-1-carbonyl)-7-azaspiro[4.5]decan-10-yl)methyl)-6-phenylpyrimidin-4(3H)-one] | 3.60 to 4.30 |
| COc1ccccc1C1CNCCN1C(=O)N1CCC(O)(Cn2cnc(-c3ccccc3)cc2=O)C2(CCCC2)C1 (centres unmarked) [Example 271, 3-((10-Hydroxy-7-(2-(2-methoxyphenyl)piperazine-1-carbonyl)-7-azaspiro[4.5]decan-10-yl)methyl)-6-phenylpyrimidin-4(3H)-one] | 3.60 to 4.30 |
| COc1cccc(C2CNCCN2C(=O)N2CCC(O)(Cn3cnc(-c4ccccc4)cc3=O)C3(CCCC3)C2)c1 (centres unmarked) [Example 272, 3-((10-Hydroxy-7-(2-(3-methoxyphenyl)piperazine-1-carbonyl)-7-azaspiro[4.5]decan-10-yl)methyl)-6-phenylpyrimidin-4(3H)-one] | 4.30 to 5.30 |
| COc1ccc(C2CNCCN2C(=O)N2CCC(O)(Cn3cnc(-c4ccccc4)cc3=O)C3(CCCC3)C2)cc1 (centres unmarked) [Example 273, 3-((10-Hydroxy-7-(2-(4-methoxyphenyl)piperazine-1-carbonyl)-7-azaspiro[4.5]decan-10-yl)methyl)-6-phenylpyrimidin-4(3H)-one] | 4.30 to 5.30 |
| O=C(N1CCC(O)(Cn2cnc(-c3ccccc3)cc2=O)C2(CCCC2)C1)N1CCNCC1c1cccnc1 (centres unmarked) [Example 274, 3-((10-Hydroxy-7-(2-(pyridin-3-yl)piperazine-1-carbonyl)-7-azaspiro[4.5]decan-10-yl)methyl)-6-phenylpyrimidin-4(3H)-one] | 5.30 to 6.30 |
| O=C(N1CCC(O)(Cn2cnc(-c3ccccc3)cc2=O)C2(CCCC2)C1)N1CCNCC1C1CC1 (centres unmarked) [Example 275, 3-((7-(2-Cyclopropylpiperazine-1-carbonyl)-10-hydroxy-7-azaspiro[4.5]decan-10-yl)methyl)-6-phenylpyrimidin-4(3H)-one] | 4.30 to 5.30 |
| O=C(N1CCC(O)(Cn2cnc(-c3ccccc3)cc2=O)C2(CCCC2)C1)N1CCNCC1C1CCC1 (centres unmarked) [Example 276, 3-((7-(2-Cyclobutylpiperazine-1-carbonyl)-10-hydroxy-7-azaspiro[4.5]decan-10-yl)methyl)-6-phenylpyrimidin-4(3H)-one] | 4.30 to 5.30 |
| COCC1CNCCN1C(=O)N1CCC(O)(Cn2cnc(-c3ccccc3)cc2=O)C2(CCCC2)C1 (centres unmarked) [Example 277, 3-((10-Hydroxy-7-(2-(methoxymethyl)piperazine-1-carbonyl)-7-azaspiro[4.5]decan-10-yl)methyl)-6-phenylpyrimidin-4(3H)-one] | 3.60 to 4.30 |

More lines, now with the values ahead:

| pIC50 | Structure (SMILES) |
| --- | --- |
| > 6.30 | O=C(N1CC[C@@](O)(Cn2cnc(-c3ccccc3)cc2=O)C2(CCCC2)C1)N1CCNC[C@H]1c1ccccc1 [Example 278, 3-(((S)-10-Hydroxy-7-((R)-2-phenylpiperazine-1-carbonyl)-7-azaspiro[4.5]decan-10-yl)methyl)-6-phenylpyrimidin-4(3H)-one] |
| 5.30 to 6.30 | CC(=O)N1CCN(C(=O)N2CC[C@@](O)(Cn3cnc(-c4ccccc4)cc3=O)C3(CCCC3)C2)[C@H](c2ccccc2)C1 [Example 279, 3-(((S)-7-((R)-4-Acetyl-2-phenylpiperazine-1-carbonyl)-10-hydroxy-7-azaspiro[4.5]decan-10-yl)methyl)-6-phenylpyrimidin-4(3H)-one] |
| > 6.30 | O=C(N1CCC(O)(Cn2ncc(-c3ccccc3)cc2=O)C2(CCCC2)C1)N1CCOC[C@H]1c1ccccc1 (stereo partly drawn) [Example 280, 2-((10-Hydroxy-7-((R)-3-phenylmorpholine-4-carbonyl)-7-azaspiro[4.5]decan-10-yl)methyl)-5-phenylpyridazin-3(2H)-one] |
| > 6.30 | CN1CCN(C(=O)N2CC[C@@](O)(Cn3cnc(-c4ccccc4)cc3=O)C3(CCCC3)C2)[C@H](c2ccccc2)C1 [Example 281, 3-(((S)-10-Hydroxy-7-((R)-4-methyl-2-phenylpiperazine-1-carbonyl)-7-azaspiro[4.5]decan-10-yl)methyl)-6-phenylpyrimidin-4(3H)-one] |
| > 6.30 | O=C(N1CC[C@@](O)(Cn2cnc(Cl)cc2=O)C2(CCCC2)C1)N1CCOC[C@H]1c1ccc(F)cc1 [Example 282, 6-Chloro-3-(((S)-7-((R)-3-(4-fluorophenyl)morpholine-4-carbonyl)-10-hydroxy-7-azaspiro[4.5]decan-10-yl)methyl)pyrimidin-4(3H)-one] |
| > 6.30 | CN(C)C(=O)c1cn(C[C@]2(O)CCN(C(=O)N3CCOC[C@H]3c3ccccc3)CC2(C)C)c(=O)cc1-c1ccccc1 [Example 283, 1-(((S)-4-Hydroxy-3,3-dimethyl-1-((R)-3-phenylmorpholine-4-carbonyl)piperidin-4-yl)methyl)-N,N-dimethyl-6-oxo-4-phenyl-1,6-dihydropyridine-3-carboxamide] |
| > 6.30 | Cn1nccc1-c1cc(=O)n(C[C@]2(O)CCN(C(=O)N3CCOC[C@H]3c3ccc(F)cc3)CC23CCCC3)cn1 [Example 284, 3-(((S)-7-((R)-3-(4-Fluorophenyl)morpholine-4-carbonyl)-10-hydroxy-7-azaspiro[4.5]decan-10-yl)methyl)-6-(1-methyl-1H-pyrazol-5-yl)pyrimidin-4(3H)-one] |
| > 6.30 | Cn1cc(-c2cc(=O)n(C[C@]3(O)CCN(C(=O)N4CCOC[C@H]4c4ccc(F)cc4)CC34CCCC4)cn2)cn1 [Example 285, 3-(((S)-7-((R)-3-(4-Fluorophenyl)morpholine-4-carbonyl)-10-hydroxy-7-azaspiro[4.5]decan-10-yl)methyl)-6-(1-methyl-1H-pyrazol-4-yl)pyrimidin-4(3H)-one] |
| > 6.30 | CC1(C)CN(C(=O)N2CCOC[C@H]2c2ccccc2)CC[C@@]1(O)Cn1ccc(-c2ccccc2)cc1=O [Example 286] |
| > 6.30 | O=C(N1CC[C@@](O)(Cn2ccc(-c3ccccc3)cc2=O)C2(CCCC2)C1)N1CCNC[C@H]1c1ccccc1 [Example 287, 1-(((S)-10-Hydroxy-7-((R)-2-phenylpiperazine-1-carbonyl)-7-azaspiro[4.5]decan-10-yl)methyl)-4-phenylpyridin-2(1H)-one] |
